Where “and” joins values, the source holds several entries; their conditions need not be identical. Equal entries are not always repeated.
Experiments:
[1] = tested on: recombinant human CYP2B6 enzyme; conditions: cited from earlier work; for inhibition of recombinant human CYP2B6 enzyme activity: psoralen: ref Ji et al. 13, clopidogrel (bupropion as substrate): ref 31, 32
[2] = tested on: ciprofol metabolism in human liver microsomes (HLMs); assay: Effects of psoralen and clopidogrel on ciprofol metabolism in HLM incubation system (substrate elimination, HPLC-MS/MS); format: in vitro ADME; conditions: for IC50: 10 min preincubation, n = 3; for Relative residual activity (ciprofol metabolism): samples 1-3 and Mean; for degree of inhibitory effect on ciprofol metabolism: grading after ref 23
Experimental: (§1) The volume of the incubation system was 200 μL and included 2 μL of substrate (ciprofol), 8 μL of rat liver microsomes (RLMs) or 6 μL of human liver microsomes (HLMs), 12 μL of NADPH generation system of solution (solution A 10 μL, solution B 2 μL), and the remaining volume was PBS. The incubation was performed in a water bath at a constant temperature of 37°C, and each sample was incubated three times in parallel.
(§2) The incubation system was removed from the water bath, and the reaction was terminated immediately by adding 800 μL of reaction termination solution (acetonitrile solution containing 5 μg·mL^-1 D6-ciprofol at 4°C). The mixture was vortexed for 2 min and centrifuged for 15 min, after which the supernatant was transferred to an autosampler vial for HPLC-MS/MS detection.
(§3) The incubation system was prepared according to the optimal incubation conditions, and different concentrations of psoralen or clopidogrel solution were added to the blank incubation system at concentrations of 0, 5, 12.5, 25, 50, 75, 100, 150, and 200 μmol·L^-1 and 0, 0.2, 0.5, 1, 2, 5, 10, 25, and 50 μmol·L^-1, respectively. The incubation system was preincubated in a water bath (37°C) for 10 min, and ciprofol was added to the system and subsequently incubated subsequently. The effects of psoralen and clopidogrel on the metabolism of ciprofol were investigated based on ΔC.
(§4) The substrate elimination method was employed in this study, and GraphPad Prism 8.0.2 software was used for statistical processing, including determination of the kinetic parameters of ciprofol metabolism and the IC50 values of psoralen and clopidogrel for ciprofol metabolism. The maximum velocity (Vmax), Michaelis constant (Km) and intrinsic clearance (CLint) were calculated using the […]: V=Vmax×[S]/Km+[S] CLint=Vmax/Km

SD rats = assay: Duration of loss of righting reflex (LORR) after ciprofol injection in rats; format: in vivo, rat; conditions: psoralen 27 mg·kg^-1 or clopidogrel 7.5 mg·kg^-1 gavage daily 7 d, then ciprofol 2.4 mg·kg^-1 i.v.
Experimental: Twenty-four SD rats were randomly and equally divided into three groups: the control group, psoralen group and clopidogrel group. The administration scheme was as follows: the control group received 0.5% carboxy methyl cellulose by gavage (1 mL·200 g^-1), the psoralen group received 27 mg·kg^-1 psoralen by gavage, and the clopidogrel group was gavaged with 7.5 mg·kg^-1 clopidogrel. […] All rats were treated once daily for seven days. Each rat was injected with 2.4 mg·kg^-1 ciprofol via the tail vein 12 h after the end of dosing on Day 7. Rats that received ciprofol injection were placed on a flat and soft insulation pad. Timekeeping began when the rats were in the supine position and lost the righting reflex and ended when the rats could turn to the prone position successfully. The duration of loss of righting reflex (LORR) in each rat was measured. During this period, approximately 300 μL of blood was collected from the inner canthus at 2, 4, 8, 12, 16, 20, 30, 45, and 60 min after ciprofol administration, and the plasma was separated. The plasma was processed and measured as described in Section 2.4.3, and DAS 2.0 software and a noncompartmental model were used to analyse the pharmacokinetic parameters.
IBM SPSS Statistics 27 software was used to analyse the main pharmacokinetic parameters, and GraphPad Prism 8.0.2 software was used for graphical visualization. […]

[3] = tested on: ciprofol metabolism in rat liver microsomes (RLMs); assay: Effects of psoralen and clopidogrel on ciprofol metabolism in RLM incubation system (substrate elimination, HPLC-MS/MS); format: in vitro ADME; conditions: for IC50: 10 min preincubation, n = 3; for Relative residual activity (ciprofol metabolism): samples 1-3 and Mean; for degree of inhibitory effect on ciprofol metabolism: grading after ref 23
Experimental: as §1, §2, §3, §4

ciprofol metabolism = tested on: ciprofol metabolism; design: method as in PMID 37309663; conditions: clinical trials NCT03758469, NCT04145583, NCT05181007; cited from earlier work

COC(=O)[C@H](c1ccccc1Cl)N1CCc2sccc2C1 [clopidogrel]
inhibition of recombinant human CYP2B6 enzyme activity [1]: strongly inhibits | inactivation potency relative to its thiolactone metabolite ([1]; recombinant human CYP2B6, bupropion as substrate): 11 times | IC50 [2]: 2.56 µM | Relative residual activity (ciprofol metabolism) ([2]; Cclopidogrel 0.20 μM): 88.53% and 84.40% and 91.91% | Relative residual activity (ciprofol metabolism) ([2]; Cclopidogrel 0.50 μM): 70.42% and 76.69% and 80.24% | Relative residual activity (ciprofol metabolism) ([2]; Cclopidogrel 1.00 μM): 66.15% and 57.16% and 70.67% | Relative residual activity (ciprofol metabolism) ([2]; Cclopidogrel 2.00 μM): 58.07% and 44.78% and 46.16% | Relative residual activity (ciprofol metabolism) ([2]; Cclopidogrel 5.00 μM): 36.69% and 31.97% and 37.99% | Relative residual activity (ciprofol metabolism) ([2]; Cclopidogrel 10.00 μM): 32.45% and 25.93% and 29.26% | Relative residual activity (ciprofol metabolism) ([2]; Cclopidogrel 25.00 μM): 23.23% and 27.69% and 23.00% | Relative residual activity (ciprofol metabolism) ([2]; Cclopidogrel 50.00 μM): 19.78% and 11.54% and 13.21% | degree of inhibitory effect on ciprofol metabolism [2]: moderate inhibitory effects | prolongation of duration of LORR compared with control group (SD rats): 23.0% | IC50 [3]: 6.38 µM | Relative residual activity (ciprofol metabolism) ([3]; Cclopidogrel 0.20 μM): 96.32% and 84.60% and 95.79% | Relative residual activity (ciprofol metabolism) ([3]; Cclopidogrel 0.50 μM): 90.44% and 83.76% and 96.63% | Relative residual activity (ciprofol metabolism) ([3]; Cclopidogrel 1.00 μM): 88.66% and 86.92% and 76.64% | Relative residual activity (ciprofol metabolism) ([3]; Cclopidogrel 2.00 μM): 75.16% and 58.26% and 69.88% | Relative residual activity (ciprofol metabolism) ([3]; Cclopidogrel 5.00 μM): 50.35% and 43.15% and 60.40% | Relative residual activity (ciprofol metabolism) ([3]; Cclopidogrel 10.00 μM): 42.20% and 50.96% and 39.90% | Relative residual activity (ciprofol metabolism) ([3]; Cclopidogrel 25.00 μM): 32.17% and 28.83% and 23.03% | Relative residual activity (ciprofol metabolism) ([3]; Cclopidogrel 50.00 μM): 11.08% and 18.95% and 13.85% | degree of inhibitory effect on ciprofol metabolism [3]: moderate inhibitory effects

Cc1cccc(Nc2ccccc2C(=O)O)c1C [mefenamic acid]
clinical effect on ciprofol metabolism (ciprofol metabolism): no clinical effect

O=c1ccc2cc3ccoc3cc2o1 [psoralen]
inhibition of recombinant human CYP2B6 enzyme activity [1]: moderately inhibit | IC50 [2]: 34 µM | Relative residual activity (ciprofol metabolism) ([2]; Cpsoralen 5 μM): 85.57% and 90.39% and 83.88% | Relative residual activity (ciprofol metabolism) ([2]; Cpsoralen 5 μM, mean): 86.61% | Relative residual activity (ciprofol metabolism) ([2]; Cpsoralen 12.5 μM): 76.45% and 75.70% and 82.09% | Relative residual activity (ciprofol metabolism) ([2]; Cpsoralen 12.5 μM, mean): 78.08% | Relative residual activity (ciprofol metabolism) ([2]; Cpsoralen 25 μM): 55.36% and 59.73% and 68.81% | Relative residual activity (ciprofol metabolism) ([2]; Cpsoralen 25 μM, mean): 61.30% | Relative residual activity (ciprofol metabolism) ([2]; Cpsoralen 50 μM): 40.24% and 31.49% and 40.07% | Relative residual activity (ciprofol metabolism) ([2]; Cpsoralen 50 μM, mean): 37.27% | Relative residual activity (ciprofol metabolism) ([2]; Cpsoralen 75 μM): 32.40% and 26.96% and 29.47% | Relative residual activity (ciprofol metabolism) ([2]; Cpsoralen 75 μM, mean): 29.61% | Relative residual activity (ciprofol metabolism) ([2]; Cpsoralen 100 μM): 17.05% and 23.45% and 21.45% | Relative residual activity (ciprofol metabolism) ([2]; Cpsoralen 100 μM, mean): 20.65% | Relative residual activity (ciprofol metabolism) ([2]; Cpsoralen 200 μM): 6.19% and 12.50% and 10.40% | Relative residual activity (ciprofol metabolism) ([2]; Cpsoralen 200 μM, mean): 9.70% | degree of inhibitory effect on ciprofol metabolism [2]: mild inhibitory effects | prolongation of duration of LORR compared with control group (SD rats): 16.1% | IC50 [3]: 63.3 µM | Relative residual activity (ciprofol metabolism) ([3]; Cpsoralen 5 μM): 93.09% and 97.46% and 90.99% | Relative residual activity (ciprofol metabolism) ([3]; Cpsoralen 5 μM, mean): 93.85% | Relative residual activity (ciprofol metabolism) ([3]; Cpsoralen 12.5 μM): 88.25% and 94.23% and 84.23% | Relative residual activity (ciprofol metabolism) ([3]; Cpsoralen 12.5 μM, mean): 88.90% | Relative residual activity (ciprofol metabolism) ([3]; Cpsoralen 25 μM): 79.18% and 75.1% and 87.55% | Relative residual activity (ciprofol metabolism) ([3]; Cpsoralen 25 μM, mean): 80.61% | Relative residual activity (ciprofol metabolism) ([3]; Cpsoralen 50 μM): 57.26% and 67.87% and 65.65% | Relative residual activity (ciprofol metabolism) ([3]; Cpsoralen 50 μM, mean): 63.59% | Relative residual activity (ciprofol metabolism) ([3]; Cpsoralen 75 μM): 32.92% and 44.27% and 51.97% | Relative residual activity (ciprofol metabolism) ([3]; Cpsoralen 75 μM, mean): 43.05% | Relative residual activity (ciprofol metabolism) ([3]; Cpsoralen 100 μM): 29.87% and 38.51% and 22.31% | Relative residual activity (ciprofol metabolism) ([3]; Cpsoralen 100 μM, mean): 30.23% | Relative residual activity (ciprofol metabolism) ([3]; Cpsoralen 150 μM): 15.05% and 20.24% and 25.14% | Relative residual activity (ciprofol metabolism) ([3]; Cpsoralen 150 μM, mean): 20.14% | Relative residual activity (ciprofol metabolism) ([3]; Cpsoralen 200 μM): 14.67% and 20.19% and 12.3% | Relative residual activity (ciprofol metabolism) ([3]; Cpsoralen 200 μM, mean): 15.72% | degree of inhibitory effect on ciprofol metabolism [3]: mild inhibitory effects

CO[C@H]1/C=C/O[C@@]2(C)Oc3c(C)c(O)c4c(O)c(c(/C=N/N5CCN(C)CC5)c(O)c4c3C2=O)NC(=O)/C(C)=C\C=C\[C@H](C)[C@H](O)[C@@H](C)[C@@H](O)[C@@H](C)[C@H](OC(C)=O)[C@@H]1C [rifampicin]
clinical effect on ciprofol metabolism (ciprofol metabolism): no clinical effect

— PMC11285948, “The effects of CYP2B6 inactivators on the metabolism of ciprofol” (PLOS ONE, 2024)
